Test results reported in US10166229B2, “Compounds and methods for the treatment of cancer” (The Board of Trustees of the University of Illinois, priority 2005, dated 2019).
“Also recorded” adds a separate entry of the source.

How the values were obtained:
HL-60 cell line = experiment: IC50 of PAC-1 derivatives in HL-60 cell line (Table 5); type: cell-based
Source text: The results are indicated in Table 5 (where L- and R-designations refer to structures shown in the AX and BX series above, respectively).

[1] = test system: cellular PARP activity in HL-60 cells; experiment: In vivo PARP activity assay (PARP cleavage) in HL-60; type: cell-based, human; details: HL-60, 100 μM PAC-1
Experimental: In vivo determination of PARP cleavage. The amount of PARP cleavage was determined by using an in vivo PARP activity assay. To accomplish this, 50 μL of media containing 200 μM NAD^+ was added to the control wells of a 96-well plate. […] 25 μL of HL-60 cells at a concentration of 5×10^6 cells/mL were then added to each well. The cells were incubated for various times and then spun at 1000×g for 5 minutes. The cell media was removed and replaced with 50 μL Lysing PARP Buffer (50 mM Tris, 10 mM MgCl2, pH 8.0, 1% Triton X-100) containing 25 mM H2O2. The plate was then incubated for 60 minutes at 37° C. To determine the amount of NAD^+ still present, 20 μL of 2 M KOH and 20 μL of a 20% (v/v) acetophenone (in ethanol) solution was added to each well of the 96-well plate. The plate was then incubated for 10 minutes at 4° C. 90 μL of an 88% (v/v) formic acid solution was added to each well of the 96-well plate. […] The plate was allowed to cool and then read on a Criterion Analyst AD (Molecular Devices, Sunnyvale, Calif.) with an excitation of 360 nm, an emission of 445 nm and a 400 nm cutoff dichroic mirror. The fluorophore was excited using a 1000 W continuous lamp for 1.6×10^5 μs with 5 reads performed per well. The number of moles of NAD^+ cleaved per minute was then calculated and the remaining PARP activity as compared to control wells was determined.

C=CCc1cccc(/C=N/NC(=O)CN2CCN(Cc3ccccc3)CC2)c1O [PAC-1]
Fold better than PAC-1 (HL-60 cell line; HL-60 IC50 relative to PAC-1): 1.0 fold
IC50 (HL-60 cell line; Homo sapiens, HL-60, Table 5): 54.6 µM
cellular PARP activity / PARP-1 cleavage [1]: rapidly reduced; also recorded: induces cleavage of the caspase substrate PARP-1; also recorded: rapid decrease
